Key:
Type in all cases: in vivo
[1] = system: Amaranthus retoflexus (AMARE); test: Pre-emergence biological efficacy, glasshouse pot test; settings: Amaranthus retroflexus, 312 h; pre-emergence, 1,000 g/ha, evaluated after 13 days (100=total damage; 0=no damage); read-out: Percentage damage AMARE
Outline: (§1)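 Seeds sown in standard soil in pots, held one day in glasshouse (24/16 °C day/night, 14 h light, 65% humidity), then sprayed with aqueous solution from acetone/water (50:50) formulation with 0.5% Tween 20 at 1000 or 250 g/ha. Damage scored after 13 days (0 = none, 100 = total).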

[2] = system: Echinochloa crus-galli (ECHCG); test: as above; settings: 312 h, pre-emergence, 1,000 g/ha, evaluated after 13 days (100=total damage; 0=no damage), read-out: Percentage damage ECHCG
Outline: as §1

Setaria faberi (SETFA) [3] = test: as above; settings: 312 h, pre-emergence, 1,000 g/ha, evaluated after 13 days (100=total damage; 0=no damage), read-out: Percentage damage SETFA
Outline: as §1

[4] = system: Alopecurus myosuroides (ALOMY); test: as above; settings: 312 h, pre-emergence, 1,000 g/ha, evaluated after 13 days (100=total damage; 0=no damage), read-out: Percentage damage ALOMY
Outline: as §1

[5] = system: Ipomea hederaceae (IPOHE); test: as above; settings: Ipomoea hederacea, 312 h; pre-emergence, 1,000 g/ha, evaluated after 13 days (100=total damage; 0=no damage); read-out: Percentage damage IPOHE
Outline: as §1

Solanum nigrum (SOLNI) [6] = test: as above; settings: 312 h, pre-emergence, 1,000 g/ha, evaluated after 13 days (100=total damage; 0=no damage), read-out: Percentage damage SOLNI
Outline: as §1

[7] = system: Amaranthus retoflexus (AMARE); test: Post-emergence biological efficacy, glasshouse pot test; settings: Amaranthus retroflexus, 312 h; post-emergence, 1,000 g/ha, evaluated after 13 days (100=total damage; 0=no damage); read-out: Percentage damage caused to weed species, AMARE
Outline: (§2)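 Plants were sown in standard soil and grown 8 days in a glasshouse (24/16° C. day/night, 14 hours light, 65% humidity), then sprayed post-emergence at 1000 or 250 g/ha from acetone/water (50:50) with 0.5% Tween 20. Damage was scored visually after 13 days (0 = none, 100 = total).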

[8] = system: Echinochloa crus-galli (ECHCG); test: as above; settings: 312 h, post-emergence, 1,000 g/ha, evaluated after 13 days (100=total damage; 0=no damage), read-out: Percentage damage caused to weed species, ECHCG
Outline: as §2

Setaria faberi (SETFA) [9] = test: as above; settings: 312 h, post-emergence, 1,000 g/ha, evaluated after 13 days (100=total damage; 0=no damage), read-out: Percentage damage caused to weed species, SETFA
Outline: as §2

[10] = system: Alopecurus myosuroides (ALOMY); test: as above; settings: 312 h, post-emergence, 1,000 g/ha, evaluated after 13 days (100=total damage; 0=no damage), read-out: Percentage damage caused to weed species, ALOMY
Outline: as §2

[11] = system: Ipomea hederaceae (IPOHE); test: as above; settings: Ipomoea hederacea, 312 h; post-emergence, 1,000 g/ha, evaluated after 13 days (100=total damage; 0=no damage); read-out: Percentage damage caused to weed species, IPOHE
Outline: as §2

Solanum nigrum (SOLNI) [12] = test: as above; settings: 312 h, post-emergence, 1,000 g/ha, evaluated after 13 days (100=total damage; 0=no damage), read-out: Percentage damage caused to weed species, SOLNI
Outline: as §2

Structure (SMILES)	pest or weed control at 1000 g/ha [1]	pest or weed control at 1000 g/ha [2]	pest or weed control at 1000 g/ha (Setaria faberi (SETFA) [3])	pest or weed control at 1000 g/ha [4]	pest or weed control at 1000 g/ha [5]	pest or weed control at 1000 g/ha (Solanum nigrum (SOLNI) [6])	pest or weed control at 1000 g/ha [7]	pest or weed control at 1000 g/ha [8]	pest or weed control at 1000 g/ha (Setaria faberi (SETFA) [9])	pest or weed control at 1000 g/ha [10]	pest or weed control at 1000 g/ha [11]	pest or weed control at 1000 g/ha (Solanum nigrum (SOLNI) [12])
COC(=O)c1nc(C2CC2)nc(NCc2cccc(OC)c2OC)c1Cl [Compound 4-109, 5-Chloro-2-cyclopropyl-4-(2,3-dimethoxyphenyl-methylamino)-6-methoxycarbonyl-pyrimidine]	70%	30%	30%	20%	80%	50%	100%	60%	80%	20%	100%	90%
COC(=O)c1nc(C2CC2)nc(NCc2ccc(OC)cc2OC)c1Cl [Compound 4-110, 5-Chloro-2-cyclopropyl-4-(2,4-dimethoxyphenyl-methylamino)-6-methoxycarbonyl-pyrimidine]	100%	80%	40%	40%	100%	90%	100%	80%	80%	70%	100%	80%
COC(=O)c1nc(C2CC2)nc(NCc2c(OC)cccc2OC)c1Cl [Compound 4-111, 5-Chloro-2-cyclopropyl-4-(2,6-dimethoxyphenyl-methylamino)-6-methoxycarbonyl-pyrimidine]	90%	50%	40%	20%	80%	60%	100%	60%	80%	30%	100%	100%
COC(=O)c1nc(C2CC2)nc(NCc2ccc(OC)c(OC)c2)c1Cl [Compound 4-112, 5-Chloro-2-cyclopropyl-4-(3,4-dimethoxyphenyl-methylamino)-6-methoxycarbonyl-pyrimidine]	70%	40%	80%	50%	90%	90%	100%	90%	90%	40%	100%	100%
COC(=O)c1nc(C2CC2)nc(NCc2ccc3c(c2)OCO3)c1Cl [Compound 4-115, 4-(Benzo[1,3]-dioxol-5-ylmethyl-amino)-5-chloro-2-cyclopropyl-6-methoxycarbonyl-pyrimidine]	100%	60%	60%	30%	90%	90%	100%	80%	90%	60%	100%	100%
COC(=O)c1nc(C2CC2)nc(NCc2ccc(Cl)c(OC)c2)c1Cl [Compound 4-116, 5-Chloro-4-(4-chloro-3-methoxy-phenylmethyl-amino)-2-cyclopropyl-6-methoxycarbonyl-pyrimidine]	100%	70%	80%	50%	100%	100%	100%	100%	90%	60%	100%	100%
COC(=O)c1nc(C2CC2)nc(NCc2c(F)ccc(F)c2F)c1Cl [Compound 4-118, 5-Chloro-2-cyclopropyl-6-methoxycarbonyl-4-(2,3,6-trifluoro-phenylmethyl-amino)pyrimidine]	40%	50%	0%	20%	70%	40%	100%	80%	80%	60%	90%	80%
COC(=O)c1nc(C2CC2)nc(NCc2cc(F)c(F)cc2F)c1Cl [Compound 4-120, 5-Chloro-2-cyclopropyl-6-methoxycarbonyl-4-(2,4,5-trifluoro-phenylmethyl-amino)pyrimidine]	60%	20%	10%	10%	40%	50%	100%	60%	90%	20%	100%	100%
COC(=O)c1nc(C2CC2)nc(NCc2c(C)cc(Cl)cc2Cl)c1Cl [Compound 4-121, 5-Chloro-2-cyclopropyl-4-(2,4-dichloro-6-methylphenylmethyl-amino)-6-methoxy-carbonylpyrimidine]	20%	0%	0%	0%	20%	0%	100%	60%	70%	20%	100%	90%
COC(=O)c1nc(C2CC2)nc(NCc2cc(OC)c(OC)c(OC)c2)c1Cl [Compound 4-122, 5-Chloro-2-cyclopropyl-6-methoxycarbonyl-4-(3,4,5-trimethoxy-phenylmethyl-amino)pyrimidine]	60%	30%	20%	10%	90%	30%	100%	90%	90%	20%	100%	100%
COC(=O)c1nc(C2CC2)nc(NCc2ccco2)c1Cl [Compound 4-125, 5-Chloro-2-cyclopropyl-4-(furan-2-ylmethyl-amino)-6-methoxy-carbonylpyrimidine]	100%	80%	80%	70%	100%	90%	100%	80%	90%	60%	100%	100%

From patent US20110086759A1, “CHEMICAL COMPOUNDS” (SYNGENTA CROP PROTECTION, INC., priority 2007, published 2011)
